From patent publication US20230025976A1, “PRMT5 Inhibitor for Use In A Method of Treating Psoriasis and Other Autoimmune Conditions” (Pfizer Inc., priority 2020, published 2023)

Tested on: psoriasis patient
Test: Treatment of a psoriasis patient (case report, Example 1)
Type: in vivo, human
Details: for Psoriasis symptoms, skin, front of torso / Psoriasis symptoms, skin, back of torso: psoriasis patient
Protocol: They had chronic psoriatic lesions on the front and back sides of their torso. The lesions covered 75% of their body, and the patient had difficulty controlling these symptoms despite having used several different medications in the past. The psoriasis symptoms worsened after chemotherapy. The patient was treated with 1 mg of (1S,2S,3S,5R)-3-((6-(difluoromethyl)-5-fluoro-1,2,3,4-tetrahydroisoquinolin-8-yl) oxy)-5-(4-methyl-7H-pyrrolo[2,3-d]pyrimidin-7-yl)cyclopentane-1,2-diol orally twice a day, for four months. During the treatment period the patient was questioned about other medical conditions, if any, they were then experiencing. […] The patient discontinued treatment after four months, for reasons unrelated to their psoriasis. […] Photos taken after two and six weeks of treatment document the clearing of psoriasis symptoms. FIGS. 1 and 2 depict said clearing of psoriasis symptoms.

## Cc1ncnc2c1ccn2[C@@H]1C[C@H](Oc2cc(C(F)F)c(F)c3c2CNCC3)[C@@H](O)[C@H]1O [(1S,2S,3S,5R)-3-((6-(difluoromethyl)-5-fluoro-1,2,3,4-tetrahydroisoquinolin-8-yl)oxy)-5-(4-methyl-7H-pyrrolo [2,3-d]pyrimidin-7-yl)cyclopentane-1,2-diol]
1 mg orally twice a day for four months, one month after cessation of treatment
  Psoriatic skin lesions after cessation of treatment: remained in remission
person, severe psoriasis, 1 mg orally twice a day, following six weeks treatment
  Psoriatic skin lesions: significant clearing
person, severe psoriasis, 1 mg orally twice a day, within one week of initiating treatment
  Psoriatic skin lesions and related itching, patient-reported: improvement in their psoriatic skin lesions and a lessening of related itching
1 mg twice daily for six weeks, FIG. 1B
  Psoriasis symptoms, skin, front of torso: mild
1 mg twice daily for six weeks, FIG. 2B
  Psoriasis symptoms, skin, back of torso: mild
1 mg twice daily for two weeks, FIG. 1A
  Psoriasis symptoms, skin, front of torso: moderate
1 mg twice daily for two weeks, FIG. 2A
  Psoriasis symptoms, skin, back of torso: moderate
